Assay results published in patent US6740642B2, “Macrolides with antibacterial activity” (BAsilea Parmaceutica AG, priority 2000, dated 2004).
≈ marks a conversion by molar mass, not a printed value.

Columns and labels:
H. influenzae 11 = assay: MIC, agar dilution, HTM medium; format: cell-based, Haemophilus influenzae; details: Haemophilus influenzae, read-out: MIC
Text: (§1) The biological activities of compounds of the present invention against Haemophilus influenzae have been determined by standard agar dilution method using HTM medium (National Committee for Clinical Laboratory Standards. 1997. Methods for dilution antimicrobial susceptibility tests for bacteria that grow aerobically, 4th edition. Approved standard M7-A4. National Committee for Clinical Laboratory Standards, Wayne, Pa.).

H. influenzae 12214 = assay: MIC, agar dilution, HTM medium; format: cell-based, Haemophilus influenzae; details: Haemophilus influenzae, read-out: MIC
Text: as §1

H. influenzae 1 = assay: MIC, agar dilution, HTM medium; format: cell-based, Haemophilus influenzae; details: Haemophilus influenzae, read-out: MIC
Text: as §1

H. influenzae H36 ODL = assay: MIC, agar dilution, HTM medium; format: cell-based, Haemophilus influenzae; details: Haemophilus influenzae, H36ODL, read-out: MIC
Text: as §1

H. influenzae 23145 = assay: MIC, agar dilution, HTM medium; format: cell-based, Haemophilus influenzae; details: Haemophilus influenzae, read-out: MIC
Text: as §1

H. influenzae ATCC 9334 = assay: MIC, agar dilution, HTM medium; format: cell-based, Haemophilus influenzae; details: Haemophilus influenzae, ATCC9334, read-out: MIC
Text: as §1

H. influenzae 23369 = assay: MIC, agar dilution, HTM medium; format: cell-based, Haemophilus influenzae; details: Haemophilus influenzae, read-out: MIC
Text: as §1

H. influenzae 3201 = assay: MIC, agar dilution, HTM medium; format: cell-based, Haemophilus influenzae; details: Haemophilus influenzae, read-out: MIC
Text: as §1

H. influenzae H13 LAH = assay: MIC, agar dilution, HTM medium; format: cell-based, Haemophilus influenzae; details: Haemophilus influenzae, H13LAH, read-out: MIC
Text: as §1

H. influenzae 3457 = assay: MIC, agar dilution, HTM medium; format: cell-based, Haemophilus influenzae; details: Haemophilus influenzae, read-out: MIC
Text: as §1

H. influenzae B 1501 = assay: MIC, agar dilution, HTM medium; format: cell-based, Haemophilus influenzae; details: Haemophilus influenzae, B1501, read-out: MIC
Text: as §1

H. influenzae Christy = assay: MIC, agar dilution, HTM medium; format: cell-based, Haemophilus influenzae; details: Haemophilus influenzae, read-out: MIC
Text: as §1

H. influenzae QK 12/87 = assay: MIC, agar dilution, HTM medium; format: cell-based, Haemophilus influenzae; details: Haemophilus influenzae, QK12/87, read-out: MIC
Text: as §1

H. influenzae 4139 = assay: MIC, agar dilution, HTM medium; format: cell-based, Haemophilus influenzae; details: Haemophilus influenzae, read-out: MIC
Text: as §1

H. influenzae H20 HDL = assay: MIC, agar dilution, HTM medium; format: cell-based, Haemophilus influenzae; details: Haemophilus influenzae, H20HDL, read-out: MIC
Text: as §1

H. influenzae QK 50 = assay: MIC, agar dilution, HTM medium; format: cell-based, Haemophilus influenzae; details: Haemophilus influenzae, QK50, read-out: MIC
Text: as §1

H. influenzae Rd KW20 = assay: MIC, agar dilution, HTM medium; format: cell-based, Haemophilus influenzae; details: Haemophilus influenzae, RDKW20, read-out: MIC
Text: as §1

H. influenzae 3640 = assay: MIC, agar dilution, HTM medium; format: cell-based, Haemophilus influenzae; details: Haemophilus influenzae, read-out: MIC
Text: as §1

H. influenzae ATCC 49247 = assay: MIC, agar dilution, HTM medium; format: cell-based, Haemophilus influenzae; details: Haemophilus influenzae, ATCC49247, read-out: MIC
Text: as §1

H. influenzae H28 HEL = assay: MIC, agar dilution, HTM medium; format: cell-based, Haemophilus influenzae; details: Haemophilus influenzae, H28HEL, read-out: MIC
Text: as §1

H. influenzae 2947 = assay: MIC, agar dilution, HTM medium; format: cell-based, Haemophilus influenzae; details: Haemophilus influenzae, read-out: MIC
Text: as §1

S. aureus ATCC29213 = assay: MIC, standard microdilution; format: cell-based, Staphylococcus aureus; details: Staphylococcus aureus, read-out: minimum inhibitory concentration (MIC)
How it was run: (§2)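 Antibacterial activity was measured by the standard microdilution technique. The method followed the NCCLS dilution standard for aerobically growing bacteria (M7-A4).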

S. aureus 745 = assay: MIC, standard microdilution; format: cell-based, Staphylococcus aureus; details: Staphylococcus aureus, read-out: minimum inhibitory concentration (MIC)
How it was run: as §2

S. aureus 1086 = assay: MIC, standard microdilution; format: cell-based, Staphylococcus aureus; details: Staphylococcus aureus, read-out: minimum inhibitory concentration (MIC)
How it was run: as §2

St. pneumoniae 1/4 = assay: MIC, standard microdilution; format: cell-based, Streptococcus pneumoniae; details: Streptococcus pneumoniae, read-out: minimum inhibitory concentration (MIC)
How it was run: as §2

St. pneumoniae 1/1 = assay: MIC, standard microdilution; format: cell-based, Streptococcus pneumoniae; details: Streptococcus pneumoniae, read-out: minimum inhibitory concentration (MIC)
How it was run: as §2

St. pneumoniae SL199T = assay: MIC, standard microdilution; format: cell-based, Streptococcus pneumoniae; details: Streptococcus pneumoniae, read-out: minimum inhibitory concentration (MIC)
How it was run: as §2

St. pneumoniae 12288 = assay: MIC, standard microdilution; format: cell-based, Streptococcus pneumoniae; details: Streptococcus pneumoniae, read-out: minimum inhibitory concentration (MIC)
How it was run: as §2

[1] = tested on: P. aeruginosa ATCC27853 (+Ery. 32 μg/ml); assay: MIC, standard microdilution; format: cell-based
How it was run: as §2

E. coli ATCC25922 = assay: MIC, standard microdilution; format: cell-based; details: Escherichia coli, read-out: minimum inhibitory concentration (MIC)
How it was run: as §2

Row | SMILES | MIC (H. influenzae 11) [µg/mL] | MIC (H. influenzae 12214) [µg/mL] | MIC (H. influenzae 1) [µg/mL] | MIC (H. influenzae H36 ODL) [µg/mL] | MIC (H. influenzae 23145) [µg/mL] | MIC (H. influenzae ATCC 9334) [µg/mL] | MIC (H. influenzae 23369) [µg/mL] | MIC (H. influenzae 3201) [µg/mL] | MIC (H. influenzae H13 LAH) [µg/mL] | MIC (H. influenzae 3457) [µg/mL] | MIC (H. influenzae B 1501) [µg/mL] | MIC (H. influenzae Christy) [µg/mL] | MIC (H. influenzae QK 12/87) [µg/mL] | MIC (H. influenzae 4139) [µg/mL] | MIC (H. influenzae H20 HDL) [µg/mL] | MIC (H. influenzae QK 50) [µg/mL] | MIC (H. influenzae Rd KW20) [µg/mL] | MIC (H. influenzae 3640) [µg/mL] | MIC (H. influenzae ATCC 49247) [µg/mL] | MIC (H. influenzae H28 HEL) [µg/mL] | also measured
1 | CC[C@H]1OC(=O)[C@H](C)C(=O)[C@H](C)[C@@H](O[C@@H]2O[C@H](C)C[C@H](N(C)C)[C@H]2O)[C@](C)(OC)C[C@@H](C)C(=O)[C@H](C)[C@H]2[C@H](SCCn3cc(C)c(=O)[nH]c3=O)C(=O)O[C@@]21C [Compound I-7, (3S,3aR,4R,6R,8R,9R,10R,12R,15R,15aS)-15-Ethyloctahydro-8-methoxy-4,6,8,10,12,15a-hexamethyl-3-[[2-[5-methyl-2,4-1H,3H-pyrimidinedione-1-yl]ethyl]thio]-9-[[3,4,6-trideoxy-3-(dimethylamino)-β-D-xylo-hexopyranosyl]oxy]-2H-furo[2,3-c]oxacyclotetradecin-2,5,11,13(3H,6H,12H)-tetrone] | 4 (≈ 5.03 µM) | 4 (≈ 5.03 µM) | 4 (≈ 5.03 µM) | 8 (≈ 10.1 µM) | 4 (≈ 5.03 µM) | 4 (≈ 5.03 µM) | 8 (≈ 10.1 µM) | 4 (≈ 5.03 µM) | 4 (≈ 5.03 µM) | 0.5 (≈ 0.628 µM) | 4 (≈ 5.03 µM) | 4 (≈ 5.03 µM) | 2 (≈ 2.51 µM) | 2 (≈ 2.51 µM) | 2 (≈ 2.51 µM) | 4 (≈ 5.03 µM) | 4 (≈ 5.03 µM) | 2 (≈ 2.51 µM) | 4 (≈ 5.03 µM) | 2 (≈ 2.51 µM) | MIC (H. influenzae 2947): 4 µg/mL (≈ 5.03 µM); MIC (S. aureus ATCC29213): ≤ 0.12 µg/mL; MIC (S. aureus 745): > 16 µg/mL; MIC (S. aureus 1086): ≤ 0.12 µg/mL; MIC (St. pneumoniae 1/4): ≤ 0.12 µg/mL; MIC (St. pneumoniae 1/1): ≤ 0.12 µg/mL; MIC (St. pneumoniae SL199T): 1 µg/mL (≈ 1.26 µM); MIC (St. pneumoniae 12288): 8 µg/mL (≈ 10.1 µM); minimum inhibitory concentration (MIC) [1]: >16 µg/mL; MIC (E. coli ATCC25922): > 16 µg/mL
2 | CC[C@H]1OC(=O)[C@H](C)C(=O)[C@H](C)[C@@H](O[C@@H]2O[C@H](C)C[C@H](N(C)C)[C@H]2O)[C@](C)(OC)C[C@@H](C)C(=O)[C@H](C)[C@H]2[C@H](SCCn3cnc4c(N)ncnc43)C(=O)O[C@@]21C [Compound I-14, (3S,3aR,4R,6R,8R,9R,10R,12R,15R,15aS)-3-[[2-[6-Amino-9H-purine-9-yl]ethyl]thio]-15-ethyloctahydro-8-methoxy-4,6,8,10,12,15a-hexamethyl-9-[[3,4,6-trideoxy-3-(dimethylamino)-β-D-xylo-hexopyranosyl]oxy]-2H-furo[2,3-c]oxacyclotetradecin-2,5,11,13(3H,6H,12H)-tetrone] | 4 (≈ 4.97 µM) | 2 (≈ 2.48 µM) | 1 (≈ 1.24 µM) | 2 (≈ 2.48 µM) | 4 (≈ 4.97 µM) | 4 (≈ 4.97 µM) | 4 (≈ 4.97 µM) | 4 (≈ 4.97 µM) | 2 (≈ 2.48 µM) | 0.25 (≈ 0.311 µM) | 1 (≈ 1.24 µM) | 2 (≈ 2.48 µM) | 0.5 (≈ 0.621 µM) | 2 (≈ 2.48 µM) | 1 (≈ 1.24 µM) | 2 (≈ 2.48 µM) | 4 (≈ 4.97 µM) | 2 (≈ 2.48 µM) | 1 (≈ 1.24 µM) | 2 (≈ 2.48 µM) | MIC (H. influenzae 2947): 2 µg/mL (≈ 2.48 µM); MIC (S. aureus ATCC29213): ≤ 0.12 µg/mL; MIC (S. aureus 745): > 16 µg/mL; MIC (S. aureus 1086): ≤ 0.12 µg/mL; MIC (St. pneumoniae 1/4): 0.25 µg/mL (≈ 0.311 µM); MIC (St. pneumoniae 1/1): ≤ 0.12 µg/mL; MIC (St. pneumoniae SL199T): 0.25 µg/mL (≈ 0.311 µM); MIC (St. pneumoniae 12288): 0.25 µg/mL (≈ 0.311 µM); minimum inhibitory concentration (MIC) [1]: >16 µg/mL; MIC (E. coli ATCC25922): 8 µg/mL (≈ 9.94 µM)
